Our source for the IC50 values is BindingDB's records for doi:10.1016/S0960-894X(97)00090-5 (1997).

Peptide text beside a SMILES is read from it.

This assay is described as follows: The concentration of compound required to prevent 50 percent of cells from adhering to MAdCAM-1.

Usually IC50 stands for the concentration at which inhibition is half-maximal. Low values mean higher potency, high ones lower potency. For `CC(=O)N[C@@H](CC(C)C)C(=O)NCC(CC(=O)O)S(=O)(=O)N[C@H](C(N)=O)[C@@H](C)O` (stereo partly drawn) [4-((S)-2-Acetylamino-4-methyl-pentanoylamino)-3-((S)-1-carbamoyl-2-(R)-hydroxy-propylsulfamoyl)-butyric acid], the IC50 was > 500 µM.
The figure for `CC(=O)N[C@@H](CC(C)C)C(=O)NCC(CC(=O)O)S(=O)(=O)N[C@H](C(N)=O)C(C)C` (stereo partly drawn) [4-((S)-2-Acetylamino-4-methyl-pentanoylamino)-3-((S)-1-carbamoyl-2-methyl-propylsulfamoyl)-butyric acid] is 219 µM.
In the case of `CC(=O)N[C@@H](CC(C)C)C(=O)N[C@@H](CC(=O)O)C(=O)N[C@H](C(N)=O)[C@@H](C)O` [(S)-3-((S)-2-Acetylamino-4-methyl-pentanoylamino)-N-((1S,2R)-1-carbamoyl-2-hydroxy-propyl)-succinamic acid] (Ac-Leu-Asp-Thr-NH2) it was 276 µM; in that of `CC(=O)N[C@@H](CC(C)C)C(=O)N[C@@H](CC(=O)O)C(=O)N[C@H](C(N)=O)C(C)C` [(S)-3-((S)-2-Acetylamino-4-methyl-pentanoylamino)-N-((S)-1-carbamoyl-2-methyl-propyl)-succinamic acid] (Ac-Leu-Asp-Val-NH2), 126 µM.
